Laboratory results reported in the supplement of paper PMC10307832.

Columns and labels:
Assay in all cases: relative viability (nuclei count vs DMSO), 5 days (fraction); higher = more cells survive
[1] = tested on: ABC-1
Method in brief: (§1)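 Each reported value is a median over duplicate plates. It expresses relative viability: treated-well nuclei count divided by vehicle-well nuclei count. Lung cancer cell lines in 1536-well plates were dosed by pin tool a day after seeding, alone with one drug or with a fixed anchor-drug dose plus five library-drug doses (not always all listed) in √10 steps, and nuclei were counted after 5 days.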

[2] = tested on: COR-L23
Method in brief: as §1

[3] = tested on: ChaGo-K-1
Method in brief: as §1

[4] = tested on: EPLC-272H
Method in brief: as §1

[5] = tested on: HCC-15
Method in brief: as §1

[6] = tested on: HCC-366
Method in brief: as §1

[7] = tested on: HCC-44
Method in brief: as §1

[8] = tested on: HCC-827
Method in brief: as §1

[9] = tested on: LCLC-103H
Method in brief: as §1

[10] = tested on: NCI-H1355
Method in brief: as §1

[11] = tested on: NCI-H1734
Method in brief: as §1

[12] = tested on: NCI-H1793
Method in brief: as §1

[13] = tested on: NCI-H1944
Method in brief: as §1

[14] = tested on: NCI-H2009
Method in brief: as §1

[15] = tested on: NCI-H2023
Method in brief: as §1

[16] = tested on: NCI-H2085
Method in brief: as §1

[17] = tested on: NCI-H2228
Method in brief: as §1

[18] = tested on: NCI-H2347
Method in brief: as §1

[19] = tested on: NCI-H2405
Method in brief: as §1

[20] = tested on: NCI-H3122
Method in brief: as §1

[21] = tested on: PC-14
Method in brief: as §1

[22] = tested on: SW 1573
Method in brief: as §1

Cc1cn(-c2cc(NC(=O)c3ccc(C)c(Nc4nccc(-c5cccnc5)n4)c3)cc(C(F)(F)F)c2)cn1 [Nilotinib] + Cc1cc(Nc2cc(N3CCN(C)CC3)nc(Sc3ccc(NC(=O)C4CC4)cc3)n2)n[nH]1 [Tozasertib] (partner 0.1 µM)
relative viability ([1]; first compound 0.001 µM): 0.175 | relative viability ([1]; first compound 0.003162 µM): 0.176 | relative viability ([1]; first compound 0.01 µM): 0.168 | relative viability ([1]; first compound 0.03162 µM): 0.232 | relative viability ([1]; first compound 0.1 µM): 0.237 | relative viability ([2]; first compound 0.001 µM): 0.143 | relative viability ([2]; first compound 0.003162 µM): 0.132 | relative viability ([2]; first compound 0.01 µM): 0.134 | relative viability ([2]; first compound 0.03162 µM): 0.158 | relative viability ([2]; first compound 0.1 µM): 0.126 | relative viability ([3]; first compound 0.001 µM): 0.205 | relative viability ([3]; first compound 0.003162 µM): 0.229 | relative viability ([3]; first compound 0.01 µM): 0.202 | relative viability ([3]; first compound 0.03162 µM): 0.162 | relative viability ([3]; first compound 0.1 µM): 0.138 | relative viability ([4]; first compound 0.001 µM): 0.212 | relative viability ([4]; first compound 0.003162 µM): 0.18 | relative viability ([4]; first compound 0.01 µM): 0.251 | relative viability ([4]; first compound 0.03162 µM): 0.182 | relative viability ([4]; first compound 0.1 µM): 0.105 | relative viability ([5]; first compound 0.001 µM): 0.236 | relative viability ([5]; first compound 0.003162 µM): 0.312 | relative viability ([5]; first compound 0.01 µM): 0.217 | relative viability ([5]; first compound 0.03162 µM): 0.165 | relative viability ([5]; first compound 0.1 µM): 0.136 | relative viability ([6]; first compound 0.001 µM): 0.0811 | relative viability ([6]; first compound 0.003162 µM): 0.057 | relative viability ([6]; first compound 0.01 µM): 0.0646 | relative viability ([6]; first compound 0.03162 µM): 0.072 | relative viability ([6]; first compound 0.1 µM): 0.05 | relative viability ([7]; first compound 0.001 µM): 0.615 | relative viability ([7]; first compound 0.003162 µM): 0.842 | relative viability ([7]; first compound 0.01 µM): 0.948 | relative viability ([7]; first compound 0.03162 µM): 0.621 | relative viability ([7]; first compound 0.1 µM): 0.487 | relative viability ([8]; first compound 0.003162 µM): 0.521 | relative viability ([8]; first compound 0.01 µM): 0.529 | relative viability ([8]; first compound 0.03162 µM): 0.39 | relative viability ([8]; first compound 0.1 µM): 0.379 | relative viability ([9]; first compound 0.001 µM): 0.347 | relative viability ([9]; first compound 0.003162 µM): 0.425 | relative viability ([9]; first compound 0.01 µM): 0.452 | relative viability ([9]; first compound 0.03162 µM): 0.364 | relative viability ([9]; first compound 0.1 µM): 0.293 | relative viability ([10]; first compound 0.001 µM): 0.512 | relative viability ([10]; first compound 0.003162 µM): 0.454 | relative viability ([10]; first compound 0.01 µM): 0.442 | relative viability ([10]; first compound 0.03162 µM): 0.343 | relative viability ([10]; first compound 0.1 µM): 0.316 | relative viability ([11]; first compound 0.001 µM): 0.251 | relative viability ([11]; first compound 0.003162 µM): 0.273 | relative viability ([11]; first compound 0.01 µM): 0.324 | relative viability ([11]; first compound 0.03162 µM): 0.231 | relative viability ([11]; first compound 0.1 µM): 0.214 | relative viability ([12]; first compound 0.001 µM): 0.248 | relative viability ([12]; first compound 0.003162 µM): 0.298 | relative viability ([12]; first compound 0.01 µM): 0.3 | relative viability ([12]; first compound 0.03162 µM): 0.306 | relative viability ([12]; first compound 0.1 µM): 0.296 | relative viability ([13]; first compound 0.001 µM): 0.248 | relative viability ([13]; first compound 0.003162 µM): 0.3 | relative viability ([13]; first compound 0.01 µM): 0.248 | relative viability ([13]; first compound 0.03162 µM): 0.197 | relative viability ([14]; first compound 0.001 µM): 0.622 | relative viability ([14]; first compound 0.003162 µM): 0.853 | relative viability ([14]; first compound 0.01 µM): 0.577 | relative viability ([14]; first compound 0.03162 µM): 0.372 | relative viability ([14]; first compound 0.1 µM): 0.383 | relative viability ([15]; first compound 0.001 µM): 0.192 | relative viability ([15]; first compound 0.003162 µM): 0.225 | relative viability ([15]; first compound 0.01 µM): 0.224 | relative viability ([15]; first compound 0.03162 µM): 0.159 | relative viability ([15]; first compound 0.1 µM): 0.183 | relative viability ([16]; first compound 0.001 µM): 0.616 | relative viability ([16]; first compound 0.003162 µM): 0.593 | relative viability ([16]; first compound 0.01 µM): 0.585 | relative viability ([16]; first compound 0.03162 µM): 0.47 | relative viability ([16]; first compound 0.1 µM): 0.427 | relative viability ([17]; first compound 0.003162 µM): 0.223 | relative viability ([17]; first compound 0.01 µM): 0.212 | relative viability ([17]; first compound 0.03162 µM): 0.16 | relative viability ([17]; first compound 0.1 µM): 0.141 | relative viability ([18]; first compound 0.001 µM): 0.451 | relative viability ([18]; first compound 0.003162 µM): 0.463 | relative viability ([18]; first compound 0.01 µM): 0.489 | relative viability ([18]; first compound 0.03162 µM): 0.476 | relative viability ([18]; first compound 0.1 µM): 0.3 | relative viability ([19]; first compound 0.001 µM): 0.767 | relative viability ([19]; first compound 0.003162 µM): 0.765 | relative viability ([19]; first compound 0.01 µM): 0.712 | relative viability ([19]; first compound 0.03162 µM): 0.654 | relative viability ([19]; first compound 0.1 µM): 0.723 | relative viability ([20]; first compound 0.001 µM): 0.364 | relative viability ([20]; first compound 0.003162 µM): 0.519 | relative viability ([20]; first compound 0.01 µM): 0.436 | relative viability ([20]; first compound 0.03162 µM): 0.374 | relative viability ([20]; first compound 0.1 µM): 0.18 | relative viability ([21]; first compound 0.001 µM): 0.682 | relative viability ([21]; first compound 0.003162 µM): 0.485 | relative viability ([21]; first compound 0.01 µM): 0.53 | relative viability ([21]; first compound 0.03162 µM): 0.519 | relative viability ([21]; first compound 0.1 µM): 0.615 | relative viability ([22]; first compound 0.001 µM): 0.194 | relative viability ([22]; first compound 0.003162 µM): 0.165 | relative viability ([22]; first compound 0.01 µM): 0.211 | relative viability ([22]; first compound 0.03162 µM): 0.173 | relative viability ([22]; first compound 0.1 µM): 0.15
